Among the test systems are A549 NSCLC; EKVX NSCLC; HCT-116 colon; MALME-3M melanoma; MOLT-4 leukemia; OVCAR-5 ovarian; SNB-75 CNS; SW-620 colon; TK-10 renal; UACC-62 melanoma.
What all share (test): NCI anticancer screen, dose series, 48 h

Molecules are shown by their SMILES. “And” between values parts separate entries of the source, which are not always exact repeats. Equal entries are not always repeated.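 All cell lines were grown in 96-well plates and treated with compound for 48 hours. At the GI50, growth is halved. TGI is the concentration that stops growth completely.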

On to `N#CCCN(CCC#N)c1ccc(C(=O)NN)cc1`, for which the TGI in the experiment with A549 NSCLC, with EKVX NSCLC, in the experiment with HCT-116 colon, in the experiment on MALME-3M melanoma, with MOLT-4 leukemia and with OVCAR-5 ovarian was > 100 µM throughout. In addition, the TGI in the experiment on SNB-75 CNS, in the experiment on SW-620 colon, in the experiment with TK-10 renal and in the experiment with UACC-62 melanoma was > 100 µM each time.
Turning to `COC(=O)c1cc2c(c(C(=O)OC)c1O)C(=O)C=CC2=O`, the GI50 in the experiment on A549 NSCLC is > 9100 nM; in the experiment on EKVX NSCLC, > 9100 nM; in the experiment with HCT-116 colon it was 3490 nM; in the experiment on MALME-3M melanoma, > 9.1 µM; in the experiment with SW-620 colon, > 9100 nM; in the experiment on TK-10 renal, > 9.1 µM. Besides, in the experiment on UACC-62 melanoma, the GI50 is 18000 nM. In addition, the TGI is > 58.3 µM in the experiment with A549 NSCLC; > 41.4 µM with EKVX NSCLC; > 9.1 µM and 16.9 µM in the experiment on HCT-116 colon; > 58.4 µM with MALME-3M melanoma; > 21.5 µM with MOLT-4 leukemia; > 54.6 µM in the experiment with OVCAR-5 ovarian. For the same molecule, the TGI in the experiment on SNB-75 CNS was > 9.1 µM and 31.8 µM; with SW-620 colon, > 21.3 µM; with TK-10 renal it was > 54.6 µM; with UACC-62 melanoma it was > 9.1 µM and 33.7 µM.
With `CCC1(O)C(=O)OCc2c1cc1n(c2=O)Cc2cc3c(N)cccc3nc2-1` (centres undefined), the TGI was 10.8 µM in the experiment with A549 NSCLC; 30.3 µM in the experiment on EKVX NSCLC; 0.735 µM in the experiment on HCT-116 colon; 5.67 µM in the experiment with MALME-3M melanoma; 0.014 µM with MOLT-4 leukemia; 2.67 µM in the experiment on OVCAR-5 ovarian. Also, the TGI in the experiment on SNB-75 CNS was determined as 0.251 µM; with SW-620 colon it was 11.7 µM; in the experiment on TK-10 renal, 35.8 µM; in the experiment on UACC-62 melanoma it was 0.0345 µM. The GI50 in the experiment with OVCAR-5 ovarian was 0.106 µM; with SW-620 colon, 53.1 nM.
Turning to `CC12CCCC(CC(=O)c3[nH]c4ccccc4c31)C2` (centres undefined), the GI50 was 2260 nM in the experiment on A549 NSCLC; 1550 nM in the experiment with EKVX NSCLC; 429 nM in the experiment on HCT-116 colon; 0.916 µM in the experiment on MALME-3M melanoma; 492 nM in the experiment with MOLT-4 leukemia; 2.82 µM in the experiment on OVCAR-5 ovarian. The GI50 in the experiment with SNB-75 CNS was 204 nM; in the experiment with SW-620 colon, 426 nM; with TK-10 renal it was 14.6 µM; in the experiment with UACC-62 melanoma, 491 nM. Also, the TGI is > 55.9 µM with A549 NSCLC; > 100 µM in the experiment on EKVX NSCLC; 18.9 µM in the experiment on HCT-116 colon; 35.6 µM in the experiment with MALME-3M melanoma; 40.9 µM in the experiment with MOLT-4 leukemia; > 100 µM in the experiment on OVCAR-5 ovarian. Also, the TGI in the experiment on SNB-75 CNS is 21.7 µM; with SW-620 colon it was > 100 µM; in the experiment with TK-10 renal, > 90.4 µM; in the experiment on UACC-62 melanoma, > 60.3 µM.
As to `O=[N+]([O-])c1ccc2nnnn2c1`, the TGI in the experiment with A549 NSCLC was > 100 µM; with EKVX NSCLC, > 100 µM; with HCT-116 colon, 50.6 µM; with MALME-3M melanoma, 60.5 µM; in the experiment on MOLT-4 leukemia, > 100 µM; in the experiment on OVCAR-5 ovarian it was > 100 µM. In addition, the TGI in the experiment with SNB-75 CNS, in the experiment on SW-620 colon, with TK-10 renal and with UACC-62 melanoma was > 100 µM each time.
On to `COc1cc(Cn2c(-c3ccccc3)cc3c2-c2oncc2CC3)cc(OC)c1OC`, for which the GI50 with A549 NSCLC was 1150 nM; with EKVX NSCLC, 1390 nM; in the experiment with HCT-116 colon it was 464 nM; in the experiment on MALME-3M melanoma it was 18.4 µM; in the experiment with MOLT-4 leukemia it was 976 nM; in the experiment with OVCAR-5 ovarian, 6.46 µM. Moreover, the GI50 in the experiment on SNB-75 CNS was 453 nM; with SW-620 colon, 420 nM; with TK-10 renal, 7.7 µM; in the experiment with UACC-62 melanoma it was 449 nM. The TGI is > 100 µM in the experiment on A549 NSCLC; > 100 µM with EKVX NSCLC; 91.7 µM in the experiment on HCT-116 colon; 84.4 µM with MALME-3M melanoma; > 100 µM in the experiment on MOLT-4 leukemia; > 100 µM with OVCAR-5 ovarian. Also, the TGI in the experiment with SNB-75 CNS was 3.99 µM; with SW-620 colon, > 100 µM; with TK-10 renal, > 100 µM; with UACC-62 melanoma, 77.5 µM.
Consider `COC(=O)[C@]12CCC(C)(C)C[C@H]1C1=CC[C@@H]3[C@@]4(C)C/C(=C/c5cccnc5)C(=O)C(C)(C)[C@@H]4CC[C@@]3(C)[C@]1(C)CC2`, for which the GI50 is 11900 nM with A549 NSCLC; 10900 nM in the experiment with EKVX NSCLC; 2710 nM in the experiment with HCT-116 colon; 5.24 µM in the experiment on MALME-3M melanoma; 2120 nM with MOLT-4 leukemia; 14.1 µM in the experiment with OVCAR-5 ovarian. Further, the GI50 in the experiment with SNB-75 CNS was 17600 nM; in the experiment on SW-620 colon, 5740 nM; in the experiment on TK-10 renal, 21.4 µM; in the experiment on UACC-62 melanoma it was 2890 nM. Moreover, the TGI in the experiment with A549 NSCLC is > 100 µM; in the experiment with EKVX NSCLC, 31.1 µM; in the experiment with HCT-116 colon, 12.1 µM; with MALME-3M melanoma, 18.2 µM; with MOLT-4 leukemia it was 6.17 µM; in the experiment on OVCAR-5 ovarian it was 38.2 µM. In addition, the TGI came to 48.5 µM with SNB-75 CNS, 33.3 µM in the experiment on SW-620 colon, 55.5 µM in the experiment on TK-10 renal and 12.8 µM in the experiment on UACC-62 melanoma.
Turning to `O=c1[nH]c(=O)n(C2CC(O)C(CS)O2)cc1F` (centres undefined), the TGI in the experiment on A549 NSCLC, with EKVX NSCLC, in the experiment on HCT-116 colon, in the experiment on MALME-3M melanoma, in the experiment on MOLT-4 leukemia and in the experiment on OVCAR-5 ovarian was > 100 µM each time. Also, the TGI with SNB-75 CNS, in the experiment with SW-620 colon, with TK-10 renal and with UACC-62 melanoma was > 100 µM each time.
